Measurements: patent publication US20230103791A1 (GLAXOSMITHKLINE INTELLECTUAL PROPERTY DEVELOPMENT LIMITED, priority 2019, published 2023)

Target: T1, human Nav1.8 (Homo sapiens, UniProt Q9Y5Y9)
T1 construct: expressed in transfected cells; host or cells: HEK293 (HEK293-Nav1.8)
Assay: Nav1.8 sodium channels assay, QPatch 48 HTX electrophysiology in HEK293-Nav1.8 cells
Type: cell-based
Settings: at least one set of experimental runs; read-out: average pIC50 value against Nav1.8 (converted)
Outline: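 HEK293 cells co-expressing human Nav1.8, Navβ1 and TREK1 were voltage-clamped on QPatch 48 HTX. The V1/2 protocol ran at 0.07 Hz: hold −100 mV, 20 ms to 0 mV, 8 s at −46 mV, 20 ms at −100 mV, then 20 ms at 0 mV (P2). P2 current was fitted over 6-8 concentrations for IC50, with vehicle wells used to correct for run-down.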

T1 sequence (Q9Y5Y9 whole entry): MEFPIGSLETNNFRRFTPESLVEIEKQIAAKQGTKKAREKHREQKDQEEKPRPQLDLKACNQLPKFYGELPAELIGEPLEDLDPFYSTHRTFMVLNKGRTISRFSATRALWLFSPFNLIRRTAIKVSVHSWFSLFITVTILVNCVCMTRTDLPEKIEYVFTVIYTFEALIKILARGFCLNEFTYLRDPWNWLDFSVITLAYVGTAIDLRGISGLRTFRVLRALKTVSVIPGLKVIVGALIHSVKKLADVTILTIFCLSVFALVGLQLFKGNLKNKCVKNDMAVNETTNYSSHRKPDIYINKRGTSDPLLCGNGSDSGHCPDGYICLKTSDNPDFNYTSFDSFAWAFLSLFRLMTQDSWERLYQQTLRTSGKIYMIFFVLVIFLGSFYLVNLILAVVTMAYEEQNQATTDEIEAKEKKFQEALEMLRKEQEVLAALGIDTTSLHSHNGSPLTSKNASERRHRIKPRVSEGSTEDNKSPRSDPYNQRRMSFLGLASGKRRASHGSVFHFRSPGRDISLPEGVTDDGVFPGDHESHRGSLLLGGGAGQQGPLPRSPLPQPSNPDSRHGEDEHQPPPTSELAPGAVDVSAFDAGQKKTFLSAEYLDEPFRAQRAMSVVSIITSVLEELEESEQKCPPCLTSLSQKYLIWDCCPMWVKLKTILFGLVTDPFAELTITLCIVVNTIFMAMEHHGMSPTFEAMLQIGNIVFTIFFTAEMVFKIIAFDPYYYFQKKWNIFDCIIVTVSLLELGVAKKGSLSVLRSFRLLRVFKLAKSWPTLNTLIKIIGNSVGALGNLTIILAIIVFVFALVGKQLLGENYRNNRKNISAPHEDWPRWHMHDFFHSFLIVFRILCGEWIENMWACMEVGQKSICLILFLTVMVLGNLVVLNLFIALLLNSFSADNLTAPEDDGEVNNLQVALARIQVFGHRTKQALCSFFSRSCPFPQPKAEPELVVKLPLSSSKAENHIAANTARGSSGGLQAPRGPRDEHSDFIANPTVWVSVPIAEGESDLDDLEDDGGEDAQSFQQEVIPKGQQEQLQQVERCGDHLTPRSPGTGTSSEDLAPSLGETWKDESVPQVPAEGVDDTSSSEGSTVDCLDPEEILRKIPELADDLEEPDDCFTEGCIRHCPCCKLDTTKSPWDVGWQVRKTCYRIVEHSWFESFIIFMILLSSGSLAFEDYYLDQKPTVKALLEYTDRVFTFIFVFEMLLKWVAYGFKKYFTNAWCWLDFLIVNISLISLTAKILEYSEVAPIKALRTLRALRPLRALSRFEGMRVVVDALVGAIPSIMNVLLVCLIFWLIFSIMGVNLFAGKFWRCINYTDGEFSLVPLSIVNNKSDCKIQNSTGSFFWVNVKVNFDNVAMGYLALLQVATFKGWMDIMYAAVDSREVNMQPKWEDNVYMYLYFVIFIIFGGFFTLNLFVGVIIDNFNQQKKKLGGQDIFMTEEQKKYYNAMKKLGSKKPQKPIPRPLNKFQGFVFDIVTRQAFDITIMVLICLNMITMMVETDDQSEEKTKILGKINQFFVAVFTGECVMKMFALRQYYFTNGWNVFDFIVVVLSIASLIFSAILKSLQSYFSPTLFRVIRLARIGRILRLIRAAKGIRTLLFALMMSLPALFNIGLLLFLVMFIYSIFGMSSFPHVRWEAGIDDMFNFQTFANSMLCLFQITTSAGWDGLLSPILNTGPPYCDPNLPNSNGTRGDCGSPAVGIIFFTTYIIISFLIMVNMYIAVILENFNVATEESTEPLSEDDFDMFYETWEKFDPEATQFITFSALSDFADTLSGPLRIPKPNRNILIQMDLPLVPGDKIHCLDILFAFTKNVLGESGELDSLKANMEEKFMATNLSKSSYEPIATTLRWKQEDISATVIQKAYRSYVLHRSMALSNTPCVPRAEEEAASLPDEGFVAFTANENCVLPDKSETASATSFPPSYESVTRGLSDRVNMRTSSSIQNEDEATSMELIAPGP
T1 sequence (Q07699 19-218 partner): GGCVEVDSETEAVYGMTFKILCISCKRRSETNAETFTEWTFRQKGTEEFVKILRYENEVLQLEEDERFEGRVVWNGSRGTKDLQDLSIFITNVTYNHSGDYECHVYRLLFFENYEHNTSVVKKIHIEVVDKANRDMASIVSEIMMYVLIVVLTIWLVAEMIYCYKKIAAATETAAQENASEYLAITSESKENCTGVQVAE

Row | SMILES | IC50 [nM]
1 | CCOc1cc(F)ccc1N1CN(c2ccc(=O)[nH]c2C)C(=O)c2cc(Cl)ccc21 [Example 68, 6-chloro-1-(2-ethoxy-4-fluorophenyl)-3-(2-methyl-6-oxo-1,6-dihydropyridin-3-yl)-2,3-dihydroquinazolin-4(1H)-one] | 126 to 631
2 | Cc1cc(OC(F)(F)F)ccc1N1CN(c2ccc(=O)[nH]c2C)C(=O)c2c1ccc(Cl)c2F [Example 74, 6-chloro-5-fluoro-1-(2-methyl-4-(trifluorometh-oxy)phenyl)-3-(2-methyl-6-oxo-1,6-dihydropyridin-3-yl)-2,3-dihydroquinazolin-4(1H)-one] | ≤ 100
3 | Cc1[nH]c(=O)ccc1N1CN(c2ccc(F)c(O)c2C)c2cc(C(F)(F)F)ccc2C1=O [Example 77, 1-(4-fluoro-3-hydroxy-2-methylphenyl)-3-(2-methyl-6-oxo-1,6-dihydropyridin-3-yl)-7-(trifluoromethyl)-2,3-dihydroquinazolin-4(1H)-one] | 126 to 631
4 | Cc1cc(F)ccc1N1CN(c2ccc(=O)[nH]c2)C(=O)c2c1ccc(Cl)c2F [Example 78, 6-chloro-5-fluoro-1-(4-fluoro-2-methylphenyl)-3-(6-oxo-1,6-dihydropyridin-3-yl)-2,3-dihydroquinazolin-4(1H)-one] | 126 to 631
5 | CCc1cc(F)ccc1N1CN(c2ccc(=O)[nH]c2C)C(=O)c2cc(Cl)ccc21 [Example 81, 6-chloro-1-(2-ethyl-4-fluorophenyl)-3-(2-methyl-6-oxo-1,6-dihydropyridin-3-yl)-2,3-dihydroquinazolin-4(1H)-one] | ≤ 100
6 | Cc1cc(=O)[nH]c(C)c1N1CN(c2ccc(F)cc2C(C)C)c2ccc(Cl)cc2C1=O [Example 82, 6-chloro-3-(2,4-dimethyl-6-oxo-1,6-dihydropyridin-3-yl)-1-(4-fluoro-2-isopropylphenyl)-2,3-dihydroquinazolin-4(1H)-one] | 126 to 631
7 | CCc1[nH]c(=O)ccc1N1CN(c2ccc(F)cc2C(C)C)c2cc(C(F)(F)F)ccc2C1=O [Example 83, 3-(2-ethyl-6-oxo-1,6-dihydropyridin-3-yl)-1-(4-fluoro-2-isopropylphenyl)-7-(trifluoromethyl)-2,3-dihydroquinazolin-4(1H)-one] | ≤ 100
8 | Cc1cc(F)ccc1N1CN(c2c[nH]c(=O)cn2)C(=O)c2ccc(C(F)(F)F)cc21 [Example 84, 1-(4-fluoro-2-methylphenyl)-3-(5-oxo-4,5-dihydropyrazin-2-yl)-7-(trifluoromethyl)-2,3-dihydroquinazolin-4(1H)-one] | 794 to 7940
9 | Cc1[nH]c(=O)ccc1N1CN(c2ccccc2)c2cc(C(F)(F)F)ccc2C1=O [Example 86, 3-(2-methyl-6-oxo-1,6-dihydropyridin-3-yl)-1-phenyl-7-(trifluoromethyl)-2,3-dihydroquinazolin-4(1H)-one] | 794 to 7940
10 | Cc1ccccc1N1CN(c2ccc(=O)[nH]c2C)C(=O)c2ccc(C(F)(F)F)cc21 [Example 87, 3-(2-methyl-6-oxo-1,6-dihydropyridin-3-yl)-1-(o-tolyl)-7-(trifluoromethyl)-2,3-dihydroquinazolin-4(1H)-one] | ≤ 100
11 | Cc1cc(F)ccc1N1CN(c2ccc(=O)[nH]c2C2CC2)C(=O)c2ccc(C(F)(F)F)cc21 [Example 90, 3-(2-cyclopropyl-6-oxo-1,6-dihydropyridin-3-yl)-1-(4-fluoro-2-methylphenyl)-7-(trifluoromethyl)-2,3-dihydroquinazolin-4(1H)-one] | ≤ 100
12 | COc1cc(F)ccc1N1CN(c2ccc(=O)[nH]c2C)C(=O)c2cc(Cl)ccc21 [Example 91, 6-chloro-1-(4-fluoro-2-methoxyphenyl)-3-(2-methyl-6-oxo-1,6-dihydropyridin-3-yl)-2,3-dihydroquinazolin-4(1H)-one] | ≤ 100
13 | Cc1cc(F)ccc1N1CN(c2cc(=O)[nH]n2C)C(=O)c2ccc(C(F)(F)F)cc21 [Example 92, 1-(4-fluoro-2-methylphenyl)-3-(2-methyl-5-oxo-2,5-dihydro-1H-pyrazol-3-yl)-7-(trifluoromethyl)-2,3-dihydroquinazolin-4(1H)-one] | 126 to 631
14 | Cc1cc(F)ccc1N1CN(c2c(C)nc(=O)[nH]c2C)C(=O)c2ccc(C(F)(F)F)cc21 [Example 94, 3-(4,6-dimethyl-2-oxo-1,2-dihydropyrimidin-5-yl)-1-(4-fluoro-2-methylphenyl)-7-(trifluoromethyl)-2,3-dihydroquinazolin-4(1H)-one] | 794 to 7940
15 | Cc1[nH]c(=O)ccc1N1CN(c2ccc(F)cc2C(C)(C)C)c2ccc(Cl)cc2C1=O [Example 95, 1-(2-(tert-butyl)-4-fluorophenyl)-6-chloro-3-(2-methyl-6-oxo-1,6-dihydropyridin-3-yl)-2,3-dihydroquinazolin-4(1H)-one] | ≤ 100

Continued, values first:

Row | IC50 [nM] | SMILES
16 | ≤ 100 | Cc1cc(F)ccc1N1CN(c2ccc(=O)[nH]c2C)C(=O)c2ccc(N(C)C)cc21 [Example 65, 7-(dimethylamino)-1-(4-fluoro-2-methylphenyl)-3-(2-methyl-6-oxo-1,6-dihydropyridin-3-yl)-2,3-dihydroquinazolin-4(1H)-one]
17 | ≤ 100 | Cc1cc(F)ccc1N1CN(c2ccc(=O)[nH]c2C)C(=O)c2ccc(Cl)cc21 [Example 66, 7-chloro-1-(4-fluoro-2-methylphenyl)-3-(2-methyl-6-oxo-1,6-dihydropyridin-3-yl)-2,3-dihydroquinazolin-4(1H)-one]
18 | 126 to 631 | CNc1ccc2c(c1)N(c1ccc(F)cc1C)CN(c1ccc(=O)[nH]c1C)C2=O [Example 67, 1-(4-fluoro-2-methylphenyl)-3-(2-methyl-6-oxo-1,6-dihydropyridin-3-yl)-7-(methylamino)-2,3-dihydroquinazolin-4(1H)-one]
19 | ≤ 100 | Cc1ccc2c(c1)N(c1ccc(F)cc1C(C)C)CN(c1ccc(=O)[nH]c1C)C2=O [Example 69, 1-(4-fluoro-2-isopropylphenyl)-7-methyl-3-(2-methyl-6-oxo-1,6-dihydropyridin-3-yl)-2,3-dihydroquinazolin-4(1H)-one]
20 | ≤ 100 | Cc1cc(F)ccc1N1CN(c2ccc(=O)[nH]c2C)C(=O)c2cc(F)c(C(F)F)cc21 [Example 70, 7-(difluoromethyl)-6-fluoro-1-(4-fluoro-2-methylphenyl)-3-(2-methyl-6-oxo-1,6-dihydropyridin-3-yl)-2,3-dihydroquinazolin-4(1H)-one]
21 | 126 to 631 | Cc1cc(F)ccc1N1CN(c2ccc(=O)[nH]c2C)C(=O)c2cc(F)c(C)nc21 [Example 71, 6-fluoro-1-(4-fluoro-2-methylphenyl)-7-methyl-3-(2-methyl-6-oxo-1,6-dihydropyridin-3-yl)-2,3-dihydropyrido[2,3-d]pyrimidin-4(1H)-one]
22 | ≤ 100 | Cc1cc(F)ccc1N1CN(c2ccc(=O)[nH]c2C)C(=O)c2cc(Cl)c(C)nc21 [Example 72, 6-chloro-1-(4-fluoro-2-methylphenyl)-7-methyl-3-(2-methyl-6-oxo-1,6-dihydropyridin-3-yl)-2,3-dihydropyrido[2,3-d]pyrimidin-4(1H)-one]
23 | ≤ 100 | Cc1cc(F)ccc1N1CN(c2ccc(=O)[nH]c2C)C(=O)c2cc(Cl)c(Cl)nc21 [Example 73, 6,7-dichloro-1-(4-fluoro-2-methylphenyl)-3-(2-methyl-6-oxo-1,6-dihydropyridin-3-yl)-2,3-dihydropyrido[2,3-d]pyrimidin-4(1H)-one]
24 | 126 to 631 | Cc1cc(F)ccc1N1CN(c2ccc(=O)[nH]c2C)C(=O)c2cc(C#N)ccc21 [Example 75, 1-(4-fluoro-2-methylphenyl)-3-(2-methyl-6-oxo-1,6-dihydropyridin-3-yl)-4-oxo-1,2,3,4-tetrahydroquin-azoline-6-carbonitrile]
25 | ≤ 100 | Cc1[nH]c(=O)ccc1N1CN(c2ccc(F)cc2C(C)C)c2ccc(Cl)cc2C1=O [Example 76, 6-chloro-1-(4-fluoro-2-isopropylphenyl)-3-(2-methyl-6-oxo-1,6-dihydropyridin-3-yl)-2,3-dihydroquinazolin-4(1H)-one]
26 | ≤ 100 | Cc1cc(F)ccc1N1CN(c2ccc(=O)[nH]c2C)C(=O)c2c1ccc(Cl)c2F [Example 79, 6-chloro-5-fluoro-1-(4-fluoro-2-methylphenyl)-3-(2-methyl-6-oxo-1,6-dihydropyridin-3-yl)-2,3-dihydroquinazolin-4(1H)-one]
27 | 794 to 7940 | Cc1cc(F)ccc1N1CN(c2ccc(=O)[nH]c2C)C(=O)c2ccc(S(C)(=O)=O)cc21 [Example 80, 1-(4-fluoro-2-methylphenyl)-3-(2-methyl-6-oxo-1,6-dihydropyridin, 3-yl)-7-(methylsulfonyl)-2,3-dihydroquinazolin-4(1H)-one]
28 | ≤ 100 | Cc1cc2c(cc1F)C(=O)N(c1ccc(=O)[nH]c1C)CN2c1ccc(F)cc1C [Example 85, 6-fluoro-1-(4-fluoro-2-methylphenyl)-7-methyl-3-(2-methyl-6-oxo-1,6-dihydropyridin-3-yl)-2,3-dihydroquinazolin-4(1H)-one]
29 | 126 to 631 | Cc1cc(F)ccc1N1CN(c2ccc(=O)[nH]c2C)C(=O)c2c(Cl)cccc21 [Example 88, 5-chloro-1-(4-fluoro-2-methylphenyl)-3-(2-methyl-6-oxo-1,6-dihydropyridin-3-yl)-2,3-dihydroquinazolin-4(1H)-one]
30 | ≤ 100 | Cc1cc(F)ccc1N1CN(c2ccc(=O)[nH]c2C)C(=O)c2c(C)cccc21 [Example 89, 1-(4-fluoro-2-methylphenyl)-5-methyl-3-(2-methyl-6-oxo-1,6-dihydropyridin-3-yl)-2,3-dihydroquinazolin-4(1H)-one]
31 | ≤ 100 | Cc1[nH]c(=O)ccc1N1CN(c2ccc(F)cc2C(C)C)c2cc(F)ccc2C1=O [Example 93, 7-fluoro-1-(4-fluoro-2-isopropylphenyl)-3-(2-methyl-6-oxo-1,6-dihydropyridin-3-yl)-2,3-dihydroquinazolin-4(1H)-one]
